Measurements reported in PubChem BioAssay (NCI).
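The compound was tested at five concentrations on cells cultured in 96-well plates, with a 48-hour exposure period. Definition used: TGI = concentration required for complete inhibition of growth.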

Experiments:
Experiment in all cases: NCI anticancer screen, dose series, 48 h
[1] = test system: OVCAR-3 ovarian
[2] = test system: MDA-N
[3] = test system: UO-31 renal
[4] = test system: SF-539 CNS
[5] = test system: NCI-H460 lung
[6] = test system: KM12 colon
[7] = test system: CCRF-CEM leukemia
[8] = test system: MDA-MB-231 breast
[9] = test system: COLO 205 colon
[10] = test system: ACHN renal
[11] = test system: UACC-62 melanoma
[12] = test system: MOLT-4 leukemia
[13] = test system: RXF 393 renal
[14] = test system: HOP-62 NSCLC
[15] = test system: BT-549 breast
[16] = test system: SF-268 CNS
[17] = test system: A549 NSCLC
[18] = test system: IGROV1 ovarian
[19] = test system: HCT-15 colon
[20] = test system: NCI-H23 lung
[21] = test system: EKVX NSCLC
[22] = test system: DU-145 prostate
[23] = test system: HL-60(TB) leukemia
[24] = test system: HT29 colon
[25] = test system: SK-OV-3 ovarian
[26] = test system: K-562 leukemia
[27] = test system: A498 renal
[28] = test system: SK-MEL-2 melanoma
[29] = test system: RPMI-8226 leukemia
[30] = test system: CAKI-1 renal
[31] = test system: LOX IMVI melanoma
[32] = test system: HCC-2998 colon
[33] = test system: NCI-H226 lung
[34] = test system: UACC-257 melanoma
[35] = test system: OVCAR-5 ovarian
[36] = test system: HCT-116 colon
[37] = test system: M14 melanoma
[38] = test system: SNB-75 CNS
[39] = test system: TK-10 renal
[40] = test system: OVCAR-8 ovarian
[41] = test system: T-47D breast
[42] = test system: PC-3 prostate
[43] = test system: NCI-H522 lung
[44] = test system: SNB-19 CNS
[45] = test system: SK-MEL-28 melanoma
[46] = test system: SR leukemia
[47] = test system: SN12C renal
[48] = test system: MCF7 breast
[49] = test system: U251 CNS
[50] = test system: 786-0 renal
[51] = test system: HOP-92 NSCLC
[52] = test system: SW-620 colon
[53] = test system: SK-MEL-5 melanoma
[54] = test system: MDA-MB-435
[55] = test system: HS 578T breast
[56] = test system: SF-295 CNS
[57] = test system: NCI/ADR-RES ovarian
[58] = test system: OVCAR-4 ovarian
[59] = test system: MALME-3M melanoma

With `O=C(O)CN1CCNCCN(CC(=O)O)CC1` the TGI [1] was greater than 100 µM, the TGI [2] was greater than 100 µM and the TGI [3] was greater than 100 µM. The TGI [4] was greater than 100 µM, the TGI [5] was greater than 64.4 µM and the TGI [6] was greater than 100 µM. The TGI [7] was greater than 100 µM, the TGI [8] was greater than 100 µM and the TGI [9] was 6.12 µM. For the same compound, the TGI [10] was greater than 100 µM, the TGI [11] was greater than 100 µM and the TGI [12] was greater than 100 µM. The TGI [13] was greater than 100 µM, the TGI [14] was greater than 100 µM and the TGI [15] was greater than 100 µM. For the same compound, the TGI [16] was greater than 100 µM, the TGI [17] was greater than 80 µM and the TGI [18] was greater than 100 µM. It also gave a TGI [19] greater than 100 µM, a TGI [20] of 20.7 µM and a TGI [21] greater than 100 µM. It also gave a TGI [22] greater than 100 µM, a TGI [23] greater than 28.6 µM and a TGI [24] greater than 21.4 µM. It also gave a TGI [25] of 98.4 µM, a TGI [26] greater than 100 µM and a TGI [27] greater than 68.7 µM. For the same compound, the TGI [28] was greater than 100 µM, the TGI [29] was greater than 100 µM and the TGI [30] was greater than 100 µM. The TGI [31] was greater than 100 µM, the TGI [32] was 55.7 µM and the TGI [33] was greater than 42.9 µM. It also gave a TGI [34] greater than 100 µM, a TGI [35] greater than 100 µM and a TGI [36] greater than 37.3 µM. It also gave a TGI [37] greater than 100 µM, a TGI [38] greater than 100 µM and a TGI [39] greater than 90.6 µM. It also gave a TGI [40] of 11.6 µM, a TGI [41] greater than 100 µM and a TGI [42] greater than 100 µM. For the same compound, the TGI [43] was 30.7 µM, the TGI [44] was greater than 100 µM and the TGI [45] was greater than 100 µM. The TGI [46] was greater than 29.4 µM, the TGI [47] was greater than 100 µM and the TGI [48] was greater than 100 µM. It also gave a TGI [49] greater than 100 µM, a TGI [50] greater than 100 µM and a TGI [51] greater than 100 µM. It also gave a TGI [52] greater than 100 µM, a TGI [53] of 39.5 µM and a TGI [54] greater than 100 µM. It also gave a TGI [55] greater than 100 µM, a TGI [56] greater than 100 µM and a TGI [57] of 7.3 µM. The TGI [58] was greater than 100 µM and the TGI [59] was greater than 100 µM.
